How the values were obtained:
[1] = system: engineered E. coli; experiment: Growth and metabolite analysis of E. coli expressing S. cerevisiae HMG-CoA synthase (pHMGS); type: cell-based, Escherichia coli; settings: accumulation on expression of HMG-CoA synthase from pHMGS
Source text: As a specific example, the accumulation of hydroxymethylglutaryl-CoA (HMG-CoA) is toxic to engineered E. coli.
(§1) FIG. 10. Cultures of E. coli expressing either no heterologous genes (Control), the S. cerevisiae HMG-CoA synthase alone (pHMGS & Empty Vector), or both the S. cerevisiae HMG-CoA synthase and HMG-CoA reductase (pHMGS & pHMGR) on separate expression vectors.
as §1, with “11. Metabolite analysis of cultures” for “10. Cultures”, “and” for “&”, “vectors. E. coli expressing HMG-CoA synthase alone accumulated HMG-CoA.” for “vectors.”

[2] = system: E. coli DH10B; experiment: Growth (optical density) of E. coli harboring mevalonate pathway operon plasmids in media supplemented with exogenous mevalonate; parameters: growth of strains lacking the ADS gene: dose or concentration left out as unconfirmed
Protocol: For the growth studies, the optical density (OD) of cultures expressing the various recombinant pathways was measured with a microtiter plate reader (SpectraMax, Molecular Devices) from 200 μl cultures of LB broth in 96-well plates incubated at 37° C. with continuous shaking. […] The DYM1 strain was propagated on LB medium containing 0.5 mM methylerithrytol (ME) and transformed DYM1 cells were first allowed to recover on plates supplemented with ME before streaking them on test media.
To investigate the cause of this inhibition, measured the growth of E. coli DH10B from strains harboring either the pMKPMK, pMevB, pMBI or pMBIS plasmid in media supplemented with increasing concentrations of exogenous mevalonate was measured. […] To compare the intracellular prenyl pyrophosphate pools in the same strains, resting cells harboring the different mevalonate operon constructs were fed radiolabeled mevalonate and the labeled metabolites were tracked. […] Simultaneous expression of the amorphadiene synthase consumed the excess FPP pool accumulated in the MBIS host, as shown by a decrease in intracellular FPP.
However, in the absence of the IPP isomerase, FPP synthase and terpene synthase to channel the pathway intermediates to the terpene olefin, toxic levels of intracellular pyrophosphates, especially IPP, may accumulate.

[3] = system: E. coli strain DYM1; experiment: Complementation of isoprenoid-deficient ispC mutant E. coli strain DYM1 on supplemented plates; type: cell-based, Escherichia coli
Source text: (§2) Campos (2001) Biochem. J. 353:59-67.
To increase the intracellular concentration of FPP substrate supplied to the amorphadiene synthase, the genes encoding the mevalonate-dependent isoprenoid pathway from S. cerevisiae were assembled into operons and expressed in E. coli. To simplify the task of engineering an eight-gene biosynthetic pathway, we divided the genes into two operons, referred to as the “top” and “bottom”. The top operon, MevT, transforms the ubiquitous precursor acetyl-CoA to (R)-mevalonate in three enzymatic steps (FIG. 13). The bottom operon converts the (R)-mevalonate to IPP, DMAPP and/or FPP depending on the construct (FIG. 13). To test the functionality of the heterologous pathway, an E. coli strain deficient in isoprenoid synthesis (strain DYM1) was transformed with plasmids expressing the three different bottom operon constructs pMevB, pMBI and pMBIS (FIG. 13). Strain DYM1 has a deletion in the ispC gene, which encodes 1-deoxy-D-xylulose-5-phosphate reductoisomerase (Kuzuyama et al. (1999) supra) and therefore, cannot synthesize 2-C-methyl-D-erythritol 4-phosphate, an intermediate in the endogenous isoprenoid biosynthetic pathway (FIG. 3). As expected, all strains grew in the presence of 2-C-methyl-D-erythritol (ME), but only the strains harboring pMBI or pMBIS and not pMevB grew on plates supplemented with 1 mM mevalonate in the absence of ME. […]

[4] = system: E. coli; experiment: Growth of E. coli overproducing IPP and DMAPP (MK, PMK, MPD, IPP isomerase from pBBR1MCS-2) with various concentrations of mevalonate; type: cell-based, Escherichia coli; settings: all concentrations of mevalonate studied
Source text: as §2
A genomic library from the isoprene-producing bacteria Bacillus subtilis 6051 was expressed from the pTrc99A plasmid in an E. coli strain engineered (genetically modified) to produce elevated levels of IPP and DMAPP. The engineered screening strain expressed nucleic acids encoding mevalonate kinase, phosphomevalonate kinase, mevalonate diphosphate decarboxylase, and IPP/DMAPP isomerase from the pBBR1MCS plasmid, as described in Example 1. Mevalonate was present in the growth medium at a concentration of 10 mM. After several rounds of growth, only plasmids containing genomic fragments with either yhfR or nudF were found in the genomic library.
FIG. 7. […] Triplicate cultures of E. coli expressing the genes encoding for mevalonate kinase, phosphomevalonate kinase, mevalonate diphosphate decarboxylase, and IPP isomerase from the pBBR1MCS-2 plasmid were grown in the presence of various concentrations of mevalonate present in the culture medium. The cells also harbor the pTRC99A expression vector.
FIG. 8. […] Triplicate cultures were set up, which were identical to those depicted in FIG. 7, except that pTRC99A was replaced by pYhfR. The pYhfR plasmid is a pTrc99A backbone that contains the gene yhfR. The yhfR gene was isolated from a plasmid library containing genomic DNA from Bacillus subtilis 6051.
FIG. 9. […]

## CC(C)(COP(=O)(O)OP(=O)(O)OC[C@H]1O[C@@H](n2cnc3c(N)ncnc32)[C@H](O)[C@@H]1OP(=O)(O)O)[C@@H](O)C(=O)NCCC(=O)NCCSC(=O)C[C@@](C)(O)CC(=O)O [HMG-CoA, hydroxymethylglutaryl-CoA]
[1]
  effect of intracellular accumulation on engineered E. coli: toxic

## C=C(C)CCO[P@@](=O)(O)OP(=O)(O)O [IPP, isopentenyl diphosphate]
[2]; accumulation in cells with high flux through the mevalonate pathway (pMevB)
  effect of intracellular accumulation on cell growth: toxic and inhibits normal cell growth

## CC(O)(CCO)CC(=O)O (stereo not shown) [mevalonate]
[2]; 5 mM mevalonate in the media
  growth of cells harboring pMKPMK, pMBI or pMBIS: did not affect the growth
  growth of cells harboring pMevB: inhibited the growth
[2]; 10 mM mevalonate
  growth of cells expressing MBIS: growth inhibition
[2]; all mevalonate concentrations, IPTG-inducible promoters
  growth of cells co-expressing the MBIS operon and the amorphadiene synthase gene: normal growth rates
[2]; approximately 2 hours after addition of mevalonate and IPTG
  growth of strains lacking the ADS gene: Growth inhibition
[2]; greater than 10 mM mevalonate, MBIS cultures where amorphadiene synthase was not expressed
  growth of control cultures: Severe growth inhibition
[2]; media supplemented with 1 mM mevalonate
  growth on expression of the operons: only a slight decrease in growth
[3]; plates supplemented with 1 mM mevalonate in the absence of ME
  growth of DYM1 strains harboring pMBI or pMBIS: grew
[4]; FIG. 8
  growth of cells harboring pYhfR (yhfR): No growth inhibition
[4]; FIG. 9
  growth of cells harboring pC9b (nudF): No growth inhibition

## C[C@](O)(CO)[C@H](O)CO [2-C-methyl-D-erythritol]
[3]; in the presence of 2-C-methyl-D-erythritol (ME)
  growth of DYM1 strains harboring pMevB, pMBI or pMBIS: grew

Source: patent US7927794B2, “Methods for identifying a biosynthetic pathway gene product” (priority 2003, dated 2011)
